From patent US20080318892A1, “METHODS AND FORMULATIONS FOR PROTECTING CELLS, AND FOR TREATING DISEASES AND CONDITIONS BY OPTIMIZING THE INTRACELLULAR CONCENTRATION OF NAD” (priority 2007, published 2008)

Tests used:
Nampt = biological target: T1, Nampt (Homo sapiens, UniProt P43490); test: Nicotinamide phosphoribosyltransferase (Nampt/PBEF) activity in SMC lysates, [14C]nicotinamide to NMN; format: cell-based; conditions: human Nampt cDNA by retrovirus
T1 construct: endogenous in cells; host or cells: human vascular SMCs (primary and HITC6), whole cell lysates
T1 sequence (P43490 whole entry): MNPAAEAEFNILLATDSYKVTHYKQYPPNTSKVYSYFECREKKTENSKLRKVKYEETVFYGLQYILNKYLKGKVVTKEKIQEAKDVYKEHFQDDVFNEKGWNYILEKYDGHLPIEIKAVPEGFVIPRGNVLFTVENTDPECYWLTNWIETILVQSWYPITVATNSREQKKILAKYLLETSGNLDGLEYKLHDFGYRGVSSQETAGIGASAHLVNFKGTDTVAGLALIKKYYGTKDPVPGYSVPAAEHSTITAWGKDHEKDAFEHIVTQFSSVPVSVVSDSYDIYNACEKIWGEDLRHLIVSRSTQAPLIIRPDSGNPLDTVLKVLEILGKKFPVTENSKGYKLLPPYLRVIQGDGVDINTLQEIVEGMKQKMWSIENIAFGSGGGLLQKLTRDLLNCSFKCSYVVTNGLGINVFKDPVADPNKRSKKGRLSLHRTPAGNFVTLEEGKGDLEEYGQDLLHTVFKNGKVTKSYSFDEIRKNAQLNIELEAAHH
Experimental: Nicotinamide Phosphoribosyltransferase Activity. […] Labelled acetone-precipitable nicotinamide mononucleotide was quantified by scintillation counting.
Assessment of Nicotinamide Phosphoribosyltransferase Activity. […] Briefly, SMCs were lysed in buffer containing 10 mM NaH2PO4/Na2HPO4, at pH 8.8. Cell lysates were incubated with 0.5 μM [carbonyl-^14C]nicotinamide and 0.5 mM phosphoribosylpyrophosphate for 4 h on a rotating rocker at 37° C.

HITB5 SMC's = test: DNA synthesis ([3H]thymidine incorporation); format: cell-based, human; conditions: PBEF-overexpressing HITB5 SMCs
Experimental: Cell Proliferation, DNA Synthesis, and Apoptosis were also evaluated. To assess SMC proliferation, cells were plated at a density of 3000 cells per cm^2 and cultured in M199 containing 5% FBS. Triplicate wells were harvested at the designated times and counted using a hemacytometer. To quantify DNA synthesis, cells in log-phase growth were incubated for 12 hours with [^3H]thymidine (10 μCi/mL) and TCA-precipitable counts determined as described (5). Thymidine incorporation was expressed relative to DNA content, quantified by spectrofluorimetry of an aliquot of cell lysate incubated with 500 μg/ml Hoechst 33258. Apoptosis was assessed in SMCs seeded on glass coverslips by in situ end-labeling of DNA fragments using terminal deoxynucleotide transferase and fluorescein 12-dUTP (Promega) (5). Cells were fixed with 4% paraformaldehyde and counterstained with Hoechst 33258.

[1] = tested on: microvessels invested by human SMC's; test: Human-mouse chimeric angiogenesis in vivo (matrigel implants); parameters: species or system SCID mice; conditions: matrigel implants with PBEF-overexpressing SMC's, 8 days; p<0.05 vs vector
Experimental: Human-Mouse Chimeric Angiogenesis in vivo was measured. HITC6 SMCs in M199 with 10% FBS and fibroblast growth factor-2 (FGF-2) were mixed with an equal volume of growth factor-reduced matrigel (BD Discovery Labware) yielding final concentrations of 5×10^5 cells/ml and 250 ng/ml FGF-2. The cell-matrigel suspension (500 μl) was subcutaneously injected into the abdomen of mice with severe combined immunodeficiency syndrome (SCID). After 8 days, implants were harvested, fixed for 8 h in Tris-buffered zinc (32), and paraffin-embedded tissues were sectioned at 5 μm. […] Tissue was then incubated with rabbit anti-GFP (1:200, BD Clontech, Palo Alto, Calif.) and bound primary antibody detected with alkaline phosphatase-conjugated goat anti-rabbit secondary antibody and visualized with red alkaline phosphatase substrate (Vector). […]
Human-Mouse Chimeric Angiogenesis in vivo was measured. […] Tissue was then incubated with rabbit anti-GFP (1:200, BD Clontech, Palo Alto, Calif.) and bound primary antibody detected with alkaline phosphatase-conjugated goat anti-rabbit secondary antibody and visualized with red alkaline phosphatase substrate (Vector). […]

[2] = tested on: primary human vascular SMCs; test: Replicative lifespan (cumulative population doublings) of primary SMCs; format: cell-based; conditions: primary adult SMCs overexpressing Nampt
HITC6 SMCs = test: Replicative lifespan (cumulative population doublings) of HITC6 SMCs; format: cell-based, human
Experimental: To quantify replication, cells were plated at 4500 cells/cm^2 and growth medium with 10% FBS was changed every two days until cells reached 90-95% confluence. Harvested cells were counted from triplicate plates and the number of population doublings was calculated based on: [log10(number of cells harvested)−log10(number of cells seeded)]/[…] (Fukuhara, 2005). Population growth curves were compared using both nonlinear regression and two-way analysis of variance.
Cell Culture. Experiments were performed using primary human SMCs and the HITC6 clonal SMC line, both derived from segments of human internal thoracic artery (Li et al., 1999; Li et al., 2001). SMCs were maintained at 37° C. with 5% CO2 and cultured in Medium 199 (Invitrogen, Carlsbad, Calif., USA) supplemented with 25 mM HEPES, 10% FBS, 1% penicillin/streptomycin, and 1% L-glutamine. Phoenix cells (distributed by ATCC, Manassas, Va., USA) were maintained at 37° C. with 5% CO2 and cultured in Dulbecco's modified Eagle's medium (Invitrogen, Carlsbad, Calif., USA). To quantify replication, cells were seeded at a density of 4500 cells/cm2 and population doublings were calculated using the following formula: […].

[3] = tested on: human aortic endothelial cells; test: Longevity and genomic stability (tetraploidy) of human aortic endothelial cells under glucose stress; format: cell-based; conditions: for longevity: cells overexpressing NamPT
Text: Generation of Nampt-overexpressing HAEC populations. HAEC were infected with retrovirus encoding an eGFP-Nampt fusion protein. A control population was infected with eGFP alone. Transduced HAEC were FACS selected for low (eGFP-Namptlo) and high (eGFP-Nampthi) levels of transgene expression based on GFP fluorescence. Control cells were selected to achieve eGFP expression (eGFP+) at a level similar to the eGFP-Namptlo cells. Levels of GFP fluorescence were confirmed by microscopy.
Assessment of longevity and genomic stability. Triplicate cell populations were plated at 1000 cells/cm2 and were serially subcultured at 80% confluence until growth curves reached plateau. Population doublings were calculated using the standard formula. At certain time points cells were harvested, fixed, and DNA content was analyzed. Tetraploid cells were counted as a proportion of the total population using ModFit software.

PBEF: 52-55 kD protein, rate-limiting enzyme for NAD+ biosynthesis from nicotinamide; tested by retroviral cDNA overexpression in cells
increase in Nampt activity in stably transduced SMCs (Nampt): 7.1±3.1 fold
thymidine incorporation vs control cells (HITB5 SMC's): no detectable difference
proportion of microvessels invested by one or more human SMC's [1]: 17.8±2.5%
additional population doublings beyond vector-infected SMCs [2]: 2.1±0.3 population doublings
prolongation of lifespan ([2]; p=0.01): 34±4%
additional population doublings (HITC6 SMCs; HITC6 SMCs overexpressing Nampt): 6.3±0.3 population doublings
extension of lifespan (HITC6 SMCs; HITC6 SMCs overexpressing Nampt, p=0.003): 71±7%
additional population doublings conferred by Nampt (HITC6 SMCs; double-transduction experiment, Nampt without SIRT1 H363Y): 5.4±0.5 population doublings
age- or high glucose-induced tetraploidy ([3]; Nampt overexpressing cells): no occurrence
longevity ([3]; glucose stress (30 mM glucose)): significantly augmented longevity
longevity ([3]; normal glucose (5 mM)): mildly improved longevity
